Reference: ChEMBL document CHEMBL1201862, “PubChem BioAssay data set” (2004)
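Values below derive from 48-hour exposures of cells grown in 96-well plates, with endpoints linearly interpolated between the two concentrations bracketing the appropriate inhibition level. The concentration for 50% growth inhibition is given as GI50.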 The source made the active and inactive calls. Cut-off read from the data, not from the text of the source: active = GI50 up to about 1.1 µM and inactive = higher.

Legend:
Experiment in all cases: NCI anticancer screen, dose series, 48 h
[1] = tested on: RXF 631
[2] = tested on: ACHN
[3] = tested on: KM12
[4] = tested on: NCI-H522
[5] = tested on: SW-620
[6] = tested on: K562
[7] = tested on: U-251
[8] = tested on: EKVX
[9] = tested on: HCT-116
[10] = tested on: SN12C
[11] = tested on: HT-29
[12] = tested on: HOP-62
[13] = tested on: HOP-92
[14] = tested on: OVCAR-3
[15] = tested on: NCI-H23
[16] = tested on: KM-20L2
[17] = tested on: UACC-257
[18] = tested on: RPMI-8226
[19] = tested on: CAKI-1
[20] = tested on: CCRF-CEM
[21] = tested on: A498
[22] = tested on: DMS-273
[23] = tested on: Malme-3M
[24] = tested on: SF-295
[25] = tested on: M19-MEL
[26] = tested on: 786-0
[27] = tested on: OVCAR-4
[28] = tested on: SK-MEL-5
[29] = tested on: SR
[30] = tested on: LOX IMVI
[31] = tested on: SF-539
[32] = tested on: M14
[33] = tested on: SF-268
[34] = tested on: OVCAR-5
[35] = tested on: A549
[36] = tested on: DLD-1
[37] = tested on: LXFL 529
[38] = tested on: MOLT-4
[39] = tested on: IGROV-1
[40] = tested on: HOP-18
[41] = tested on: NCI-H460
[42] = tested on: SNB-78
[43] = tested on: XF498
[44] = tested on: DMS-114
[45] = tested on: SK-OV-3
[46] = tested on: NCI-H226
[47] = tested on: HCT-15
[48] = tested on: UO-31
[49] = tested on: UACC-62
[50] = tested on: SK-MEL-28
[51] = tested on: OVCAR-8
[52] = tested on: SNB-19
[53] = tested on: COLO 205
[54] = tested on: HL-60
[55] = tested on: TK-10
[56] = tested on: HCC 2998
[57] = tested on: SNB-75

Clc1ccc(Cl)c2[s+]snc12
GI50 [1]: > 94.6 µM (inactive) | GI50 [2]: > 79.1 µM (inactive) | GI50 [3]: > 67.5 µM (inactive) | GI50 [4]: 18.1 µM (inactive) | GI50 [5]: 23.6 µM (inactive) | GI50 [6]: > 45.8 µM (inactive) | GI50 [7]: 38.6 µM (inactive) | GI50 [8]: > 100 µM (inactive) | GI50 [9]: 21.6 µM (inactive) | GI50 [10]: > 79.3 µM (inactive) | GI50 [11]: 25 µM (inactive) | GI50 [12]: > 85.3 µM (inactive) | GI50 [13]: > 60.7 µM (inactive) | GI50 [14]: > 63.5 µM (inactive) | GI50 [15]: > 100 µM (inactive) | GI50 [16]: > 100 µM (inactive) | GI50 [17]: > 93.3 µM (inactive) | GI50 [18]: > 48.6 µM (inactive) | GI50 [19]: > 100 µM (inactive) | GI50 [20]: 50.8 µM (inactive) | GI50 [21]: > 100 µM (inactive) | GI50 [22]: 27 µM (inactive) | GI50 [23]: > 49.5 µM (inactive) | GI50 [24]: > 76.6 µM (inactive) | GI50 [25]: 54.7 µM (inactive) | GI50 [26]: > 40.9 µM (inactive) | GI50 [27]: > 100 µM (inactive) | GI50 [28]: 76 µM (inactive) | GI50 [29]: > 100 µM (inactive) | GI50 [30]: 31 µM (inactive) | GI50 [31]: 46 µM (inactive) | GI50 [32]: 55.6 µM (inactive) | GI50 [33]: 46.8 µM (inactive) | GI50 [34]: > 100 µM (inactive) | GI50 [35]: > 100 µM (inactive) | GI50 [36]: 44.6 µM (inactive) | GI50 [37]: 34.2 µM (inactive) | GI50 [38]: > 79.6 µM (inactive) | GI50 [39]: > 100 µM (inactive) | GI50 [40]: > 100 µM (inactive) | GI50 [41]: 30.7 µM (inactive) | GI50 [42]: > 100 µM (inactive) | GI50 [43]: > 100 µM (inactive) | GI50 [44]: 24.9 µM (inactive) | GI50 [45]: > 100 µM (inactive) | GI50 [46]: > 100 µM (inactive) | GI50 [47]: 29.4 µM | GI50 [48]: > 100 µM (inactive) | GI50 [49]: 43.4 µM (inactive) | GI50 [50]: > 100 µM (inactive) | GI50 [51]: 40.3 µM (inactive) | GI50 [52]: > 93.5 µM (inactive) | GI50 [53]: > 43.1 µM (inactive) | GI50 [54]: 50.7 µM (inactive) | GI50 [55]: > 100 µM (inactive) | GI50 [56]: > 100 µM (inactive) | GI50 [57]: 41.2 µM (inactive)
